Assay results as given in publication PMC6099547, “Expression, Purification, and Characterization of a Novel Hybrid Peptide with Potent Antibacterial Activity” (Molecules : A Journal of Synthetic Chemistry and Natural …, 2018).
Marks after values point to notes of the source that are not given here. Where a SMILES comes first, the peptide text is derived from it.

Experiments:
L. mono. CVCC1599 = format: cell-based, Listeria monocytogenes; conditions: 12 h
Experimental: (§1) CVCC1599 as indicator strains. […] Each assay was performed in triplicate.

trypsin = assay: Protease susceptibility, residual activity by inhibition zone assay; conditions: trypsin 10 μg/mL in PBS, peptide 1 μM in PBS; control without enzyme; agar diffusion inhibition zone, S. aureus ATCC25923; three replicates
Experimental: Antibacterial activity of recombinant C–L was assayed by the agar diffusion method with S. aureus ATCC25923 as indicator strain. […] The same volume of PBS was used as negative control. The inhibition zone was measured after incubation overnight at 37 °C. […] CVCC1599 as indicator strains. The indicator strains were cultured at 37 °C to logarithmic stage and diluted to the concentration of 1 × 10^6 cfu/mL with Mueller–Hinton (MH) broth medium, and 180 µL culture was dispensed into per well of 96-well microtiter plate. Peptides were then serially diluted, and dilutions were added into the wells (final volume 200 µL). Each assay was performed in triplicate. After incubation at 37 °C for 12 h, the plate was assessed by measuring the OD600. The MIC was defined as the lowest concentration (at which there was no change in optical density) required to prevent the growth of bacteria.
The stability of the purified recombinant C–L and synthesized C–L at different pH values (2.0–11.0) and different temperatures (37, 50, 60, 70, 80, 90, and 100 °C for 20 min) was evaluated. […] Stability of recombinant C–L and synthesized C–L was assessed by the agar diffusion method as described above and the inhibition zones were recorded. S. aureus ATCC25923 was used as the indicator strain and the inhibition zones were recorded.

E. coli CVCC245 = format: cell-based, Escherichia coli; conditions: CVCC245, 12 h
Experimental: as §1

S. aureus ATCC 25923 = format: cell-based, Staphylococcus aureus; conditions: ATCC 25923, 12 h
Experimental: as §1

sheep erythrocytes = assay: Hemolytic assay; format: cell-based; conditions: red cells of sheep
Experimental: Peptide concentrations that caused 50% hemolysis of sheep erythrocytes at 540 nm were measured to evaluate the hemolytic activities. Sheep erythrocytes with 10 mM phosphate buffered saline (PBS)/0.1% (v/v) Triton X-100 (Sigma, San Francisco, CA, USA) added were used as negative/positive control. Assays were performed in triplicate.

proteinase K = proteinase K (Parengyodontium album, UniProt P06873); assay: Protease susceptibility, residual activity by inhibition zone assay; format: in vitro ADME; conditions: proteinase K 10 μg/mL in PBS, peptide 1 μM in PBS; control without enzyme; agar diffusion inhibition zone, S. aureus ATCC25923; three replicates
Experimental: as §1

pepsin = assay: as above; format: in vitro ADME; conditions: pepsin 10 μg/mL in PBS, agar diffusion inhibition zone; for Functional activity maintained under pepsin: peptide 1 μM in PBS, control without enzyme, S. aureus ATCC25923, three replicates
Experimental: as §1

proteinase K, sequence (P06873 106-384): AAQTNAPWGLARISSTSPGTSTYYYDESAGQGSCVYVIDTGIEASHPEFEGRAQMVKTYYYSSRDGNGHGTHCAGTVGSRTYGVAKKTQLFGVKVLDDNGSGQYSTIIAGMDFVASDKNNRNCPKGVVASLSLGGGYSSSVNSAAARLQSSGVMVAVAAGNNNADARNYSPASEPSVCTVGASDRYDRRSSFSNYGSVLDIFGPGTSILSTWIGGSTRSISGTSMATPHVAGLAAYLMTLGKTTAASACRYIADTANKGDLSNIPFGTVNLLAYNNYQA

Row | Structure (SMILES) | MIC (L. mono. CVCC1599) | Functional activity maintained under trypsin (trypsin) | MIC (E. coli CVCC245) | MIC (S. aureus ATCC 25923) | HC50 (hemolytic activity) (sheep erythrocytes) | Functional activity maintained under proteinase K (proteinase K) | Functional activity maintained under pepsin (pepsin) | Reduction in activity when exposed to pepsin (pepsin; peptide 1 μM)
1 | CC[C@H](C)[C@H](NC(=O)[C@H](CCCCN)NC(=O)[C@H](CCCCN)NC(=O)[C@H](Cc1ccccc1)NC(=O)[C@H](CC(C)C)NC(=O)[C@H](CCCCN)NC(=O)[C@H](Cc1c[nH]c2ccccc12)NC(=O)[C@@H](N)CCCCN)C(=O)N[C@@H](Cc1ccccc1)C(=O)N[C@@H](CCCCN)C(=O)N[C@@H](CCCNC(=N)N)C(=O)N[C@H](C(=O)N[C@H](C(=O)N[C@@H](CCC(N)=O)C(=O)N[C@@H](CCCNC(=N)N)C(=O)N[C@H](C(=O)N[C@@H](CCCCN)C(=O)N[C@@H](CC(=O)O)C(=O)N[C@@H](Cc1ccccc1)C(=O)N[C@@H](CC(C)C)C(=O)N[C@@H](CCCNC(=N)N)C(=O)N[C@@H](CC(N)=O)C(=O)O)[C@@H](C)CC)C(C)C)[C@@H](C)CC [Recombinant C–L] (H-KWKLFKKIFKRIVQRIKDFLRN-OH) | 2.1 ± 0.03 ^c μg/mL | almost the same stability | 7.2 ± 0.14 ^b μg/mL | 2.2 ± 0.05 ^c μg/mL | 221 ± 3.45 ^a μg/mL | almost the same stability | almost the same stability | –
2 | CC[C@H](C)[C@H](NC(=O)[C@H](CCCCN)NC(=O)[C@H](CCCCN)NC(=O)[C@H](Cc1ccccc1)NC(=O)[C@H](CC(C)C)NC(=O)[C@H](CCCCN)NC(=O)[C@H](Cc1c[nH]c2ccccc12)NC(=O)[C@@H](N)CCCCN)C(=O)N[C@@H](Cc1ccccc1)C(=O)N[C@@H](CCCCN)C(=O)N[C@@H](CCCNC(=N)N)C(=O)N[C@H](C(=O)N[C@H](C(=O)N[C@@H](CCC(N)=O)C(=O)N[C@@H](CCCNC(=N)N)C(=O)N[C@H](C(=O)N[C@@H](CCCCN)C(=O)N[C@@H](CC(=O)O)C(=O)N[C@@H](Cc1ccccc1)C(=O)N[C@@H](CC(C)C)C(=O)N[C@@H](CCCNC(=N)N)C(=O)N[C@@H](CC(N)=O)C(=O)O)[C@@H](C)CC)C(C)C)[C@@H](C)CC [Synthesized C–L] (H-KWKLFKKIFKRIVQRIKDFLRN-OH) | 2.2 ± 0.05 ^c μg/mL | maintained a portion of functional activity | 7.0 ± 0.21 ^b μg/mL | 2.0 ± 0.02 ^c μg/mL | 219 ± 2.98 ^a μg/mL | maintained a portion of functional activity | maintained a portion of functional activity | –
3 | CC[C@H](C)[C@H](NC(=O)[C@H](CCCCN)NC(=O)[C@H](CCCCN)NC(=O)[C@H](Cc1ccccc1)NC(=O)[C@H](CC(C)C)NC(=O)[C@H](CCCCN)NC(=O)[C@H](Cc1c[nH]c2ccccc12)NC(=O)[C@@H](N)CCCCN)C(=O)N[C@@H](Cc1ccccc1)C(=O)N[C@@H](CCCCN)C(=O)N[C@@H](CCCNC(=N)N)C(=O)N[C@H](C(=O)N[C@H](C(=O)N[C@@H](CCC(N)=O)C(=O)N[C@@H](CCCNC(=N)N)C(=O)N[C@H](C(=O)N[C@@H](CCCCN)C(=O)N[C@@H](CC(=O)O)C(=O)N[C@@H](Cc1ccccc1)C(=O)N[C@@H](CC(C)C)C(=O)N[C@@H](CCCNC(=N)N)C(=O)N[C@@H](CC(N)=O)C(=O)O)[C@@H](C)CC)C(C)C)[C@@H](C)CC [C–L, cecropin A (1–8)–LL37 (17–30)] (H-KWKLFKKIFKRIVQRIKDFLRN-OH) | – | over 50% | – | – | – | over 50% | over 50% | nearly half reduction in activity
